The record followed here is ChEMBL document CHEMBL2074094 (Arch Biochem Biophys, 1998).

Data set [1] concerns the target ATP-dependent translocase ABCB1 (Homo sapiens, UniProt P08183). Put plainly: TP_TRANSPORTER: transepithelial transport (basal to apical) in MDR1-expressing LLC-PK1 cells. Type of data set: functional, cell-based. As to conditions: pig.
In data set [2] the target is T1, ATP-dependent translocase ABCB1 (Mus musculus, UniProt P21447). As to the kind of experiment: TP_TRANSPORTER: transepithelial transport (basal to apical) in mdr1a-expressing LLC-PK1 cell. Type of data set: functional, cell-based. As to conditions: pig.
Data set [3] concerns the target T1, ATP-dependent translocase ABCB1. Put plainly: TP_TRANSPORTER: tissue concentration in mdr1a(-/-) mouse. Type of data set: functional, organism-based. Particulars: in vivo.

T1 sequence (P21447 whole entry): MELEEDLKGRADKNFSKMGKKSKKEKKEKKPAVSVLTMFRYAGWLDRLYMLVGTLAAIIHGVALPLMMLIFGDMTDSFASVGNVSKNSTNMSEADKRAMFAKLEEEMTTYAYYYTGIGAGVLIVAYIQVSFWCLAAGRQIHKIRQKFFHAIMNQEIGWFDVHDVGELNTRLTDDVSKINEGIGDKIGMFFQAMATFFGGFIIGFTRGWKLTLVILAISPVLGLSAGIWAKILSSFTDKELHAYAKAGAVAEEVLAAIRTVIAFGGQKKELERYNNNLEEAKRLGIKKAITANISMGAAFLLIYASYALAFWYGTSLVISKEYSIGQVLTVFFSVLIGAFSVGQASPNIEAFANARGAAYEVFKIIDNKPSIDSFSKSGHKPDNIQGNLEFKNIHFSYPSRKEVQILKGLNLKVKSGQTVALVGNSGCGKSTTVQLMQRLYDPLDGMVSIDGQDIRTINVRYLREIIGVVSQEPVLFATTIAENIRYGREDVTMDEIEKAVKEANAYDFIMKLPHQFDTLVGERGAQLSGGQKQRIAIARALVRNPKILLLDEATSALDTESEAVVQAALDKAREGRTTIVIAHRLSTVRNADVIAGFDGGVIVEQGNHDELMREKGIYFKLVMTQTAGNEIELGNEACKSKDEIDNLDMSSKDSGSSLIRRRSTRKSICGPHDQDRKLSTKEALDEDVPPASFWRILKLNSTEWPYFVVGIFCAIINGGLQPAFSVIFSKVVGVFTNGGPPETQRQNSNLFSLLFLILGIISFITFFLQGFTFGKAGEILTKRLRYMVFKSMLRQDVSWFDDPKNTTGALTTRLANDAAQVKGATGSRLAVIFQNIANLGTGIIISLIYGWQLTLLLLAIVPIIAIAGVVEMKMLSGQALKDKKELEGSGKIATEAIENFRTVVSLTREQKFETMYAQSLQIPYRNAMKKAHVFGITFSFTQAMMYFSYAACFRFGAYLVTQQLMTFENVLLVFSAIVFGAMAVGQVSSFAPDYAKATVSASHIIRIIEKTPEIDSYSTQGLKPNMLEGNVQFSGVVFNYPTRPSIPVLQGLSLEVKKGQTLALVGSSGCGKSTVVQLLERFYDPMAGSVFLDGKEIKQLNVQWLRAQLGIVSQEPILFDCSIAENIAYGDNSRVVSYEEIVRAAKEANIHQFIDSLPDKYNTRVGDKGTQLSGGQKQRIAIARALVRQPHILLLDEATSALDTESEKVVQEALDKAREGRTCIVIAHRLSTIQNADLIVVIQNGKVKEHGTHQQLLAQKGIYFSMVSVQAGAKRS
Sequence of ATP-dependent translocase ABCB1 (Homo sapiens, UniProt P08183) (P08183 whole entry): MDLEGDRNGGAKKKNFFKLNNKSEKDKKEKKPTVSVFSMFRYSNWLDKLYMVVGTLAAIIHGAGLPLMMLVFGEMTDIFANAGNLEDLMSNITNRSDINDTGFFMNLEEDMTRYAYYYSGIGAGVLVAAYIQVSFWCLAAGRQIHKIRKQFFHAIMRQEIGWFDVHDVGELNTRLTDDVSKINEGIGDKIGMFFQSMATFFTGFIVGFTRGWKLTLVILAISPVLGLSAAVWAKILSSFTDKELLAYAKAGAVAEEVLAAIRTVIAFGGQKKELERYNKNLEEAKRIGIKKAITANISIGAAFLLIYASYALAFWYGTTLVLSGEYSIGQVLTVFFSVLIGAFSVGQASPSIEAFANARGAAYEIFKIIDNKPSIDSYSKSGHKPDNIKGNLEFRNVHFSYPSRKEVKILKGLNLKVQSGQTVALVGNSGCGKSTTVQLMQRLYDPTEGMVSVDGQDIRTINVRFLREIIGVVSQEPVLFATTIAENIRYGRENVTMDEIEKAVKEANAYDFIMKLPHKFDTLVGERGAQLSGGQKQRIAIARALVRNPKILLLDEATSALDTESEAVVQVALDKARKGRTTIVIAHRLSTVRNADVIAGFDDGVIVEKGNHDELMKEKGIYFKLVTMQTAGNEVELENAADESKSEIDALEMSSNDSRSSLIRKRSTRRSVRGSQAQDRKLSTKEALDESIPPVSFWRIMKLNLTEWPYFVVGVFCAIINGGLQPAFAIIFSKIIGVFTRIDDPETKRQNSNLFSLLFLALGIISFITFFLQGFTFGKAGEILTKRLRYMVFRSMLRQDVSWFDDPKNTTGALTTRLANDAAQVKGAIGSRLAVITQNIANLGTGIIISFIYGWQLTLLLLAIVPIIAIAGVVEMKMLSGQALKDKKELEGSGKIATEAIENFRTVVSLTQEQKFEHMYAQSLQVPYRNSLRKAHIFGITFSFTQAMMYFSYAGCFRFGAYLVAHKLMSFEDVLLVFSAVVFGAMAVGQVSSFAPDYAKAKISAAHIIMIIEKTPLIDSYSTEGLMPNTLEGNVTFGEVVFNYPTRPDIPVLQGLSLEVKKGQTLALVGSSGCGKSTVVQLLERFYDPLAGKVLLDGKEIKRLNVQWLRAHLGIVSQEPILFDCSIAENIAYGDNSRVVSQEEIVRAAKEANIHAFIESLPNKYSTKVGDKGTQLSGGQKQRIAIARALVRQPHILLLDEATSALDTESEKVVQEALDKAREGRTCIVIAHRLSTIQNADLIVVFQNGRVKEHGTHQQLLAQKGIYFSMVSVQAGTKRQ

`CC1=C(/C=C/C(C)=C/C=C/C(C)=C/C(=O)O)C(C)(C)CCC1` [TRETINOIN]: the Activity entry in data set [1], in data set [2] and in data set [3] was “is not a substrate [-]” throughout.

`c1ccc2c(c1)cc1ccc3cccc4ccc2c1c34`: the Activity entry in data set [1] and in data set [2] was “is not a substrate [-]” throughout.
